Laboratory results taken from the NIST ThermoML archive (doi:10.1021/je060243s).
Values joined by “and” are separate entries in the source; they are usually repeats but may differ in a detail not shown here. Equal values may be shown once. Numbers after ± are expanded uncertainties.

Experiment: wn = mass fraction of the nth substance listed
Settings: Liquid, Pulse-echo method, w2 = 0.5

FC(F)C(F)(F)F [pentafluoroethane] + FCF
speed of sound
Settings	253.09 K	258.09 K	265.61 K	273.12 K	280.72 K	288.2 K
830 kPa	–	–	–	574.5 ± 1.3 m/s	–	–
1000 kPa	–	656.5 ± 1.3 m/s	–	–	–	–
1030 kPa	–	–	–	–	535.2 ± 1.3 m/s	–
1060 kPa	–	–	–	–	535.5 ± 1.3 m/s	–
1120 kPa	–	657.6 ± 1.3 m/s	–	–	–	–
1150 kPa	–	–	–	–	536.9 ± 1.3 m/s	–
1180 kPa	684.1 ± 1.3 m/s	–	–	–	–	–
1190 kPa	–	–	618.9 ± 1.3 m/s	–	–	–
1220 kPa	–	–	–	578.8 ± 1.3 m/s	–	–
1260 kPa	684.8 ± 1.3 m/s	658.8 ± 1.3 m/s	–	–	538 ± 1.3 m/s	–
1340 kPa	–	–	620 ± 1.3 m/s	–	–	–
1350 kPa	–	–	–	–	–	496 ± 1.3 m/s
1360 kPa	–	–	–	580.1 ± 1.3 m/s	–	–
1380 kPa	685.8 ± 1.3 m/s	659.7 ± 1.3 m/s	–	–	539.4 ± 1.3 m/s	–
1420 kPa	–	–	–	–	–	497.2 ± 1.3 m/s
1480 kPa	–	–	–	–	–	498 ± 1.3 m/s
1500 kPa	686.8 ± 1.3 m/s	660.8 ± 1.3 m/s and 661 ± 1.3 m/s	621.6 ± 1.3 m/s	581.6 ± 1.3 m/s	540.9 ± 1.3 m/s	–
1550 kPa	–	–	–	–	–	499 ± 1.3 m/s
1620 kPa	687.7 ± 1.3 m/s	–	–	–	–	–
1630 kPa	–	662.2 ± 1.3 m/s	–	–	542.3 ± 1.3 m/s	–
1750 kPa	688.8 ± 1.3 m/s	663.1 ± 1.3 m/s	623.8 ± 1.3 m/s	584.2 ± 1.3 m/s	543.8 ± 1.3 m/s	–
2010 kPa	690.6 ± 1.3 m/s	665.1 ± 1.3 m/s	626.1 ± 1.3 m/s	586.8 ± 1.3 m/s	546.7 ± 1.3 m/s	–
2250 kPa	692.6 ± 1.3 m/s	667.1 ± 1.3 m/s	628.3 ± 1.3 m/s	589.4 ± 1.3 m/s	549.6 ± 1.3 m/s	–
2510 kPa	694.3 ± 1.3 m/s	669.2 ± 1.3 m/s	630.7 ± 1.3 m/s	591.9 ± 1.3 m/s	552.3 ± 1.3 m/s	–
2750 kPa	696.4 ± 1.3 m/s	671.4 ± 1.3 m/s	633 ± 1.3 m/s	594.1 ± 1.3 m/s	555 ± 1.3 m/s	–
3010 kPa	698.4 ± 1.3 m/s	673.4 ± 1.3 m/s	635.2 ± 1.3 m/s	596.9 ± 1.3 m/s	557.9 ± 1.3 m/s	–
3500 kPa	702.3 ± 1.3 m/s	677.1 ± 1.3 m/s	639.4 ± 1.3 m/s	601.6 ± 1.3 m/s	563.2 ± 1.3 m/s	–
4000 kPa	705 ± 1.3 m/s	681.1 ± 1.3 m/s	644 ± 1.3 m/s	606.4 ± 1.3 m/s	568.5 ± 1.3 m/s	–
4500 kPa	709.5 ± 1.3 m/s	685.3 ± 1.3 m/s	648.1 ± 1.3 m/s	611 ± 1.3 m/s	573.7 ± 1.3 m/s	–
5000 kPa	713.3 ± 1.3 m/s	689.1 ± 1.3 m/s	652.1 ± 1.3 m/s	615.4 ± 1.3 m/s	579 ± 1.3 m/s	–
6010 kPa	720.6 ± 1.3 m/s	696.6 ± 1.3 m/s	660.6 ± 1.3 m/s	624.4 ± 1.3 m/s	588.6 ± 1.3 m/s	–
7010 kPa	727.4 ± 1.3 m/s	703.9 ± 1.3 m/s	668.4 ± 1.3 m/s	633.3 ± 1.3 m/s	598.3 ± 1.3 m/s	–
8000 kPa	734.2 ± 1.3 m/s	711 ± 1.3 m/s	676.1 ± 1.3 m/s	641.5 ± 1.3 m/s	607.1 ± 1.3 m/s	–
9000 kPa	740.8 ± 1.3 m/s	718.1 ± 1.3 m/s	683.8 ± 1.3 m/s	649.3 ± 1.3 m/s	615.9 ± 1.3 m/s	–
10000 kPa	747.5 ± 1.3 m/s	724.8 ± 1.3 m/s	691 ± 1.3 m/s	657.6 ± 1.3 m/s	624.5 ± 1.3 m/s	–
12000 kPa	760.2 ± 1.3 m/s	738.2 ± 1.3 m/s	705.2 ± 1.3 m/s	672.7 ± 1.3 m/s	640.6 ± 1.3 m/s	–
14000 kPa	772.5 ± 1.3 m/s	751.2 ± 1.3 m/s	718.9 ± 1.3 m/s	687.3 ± 1.3 m/s	656.1 ± 1.3 m/s	–
16010 kPa	784.5 ± 1.3 m/s	763.4 ± 1.3 m/s	732.1 ± 1.3 m/s	701.1 ± 1.3 m/s	670.9 ± 1.3 m/s	–
18000 kPa	795.3 ± 1.3 m/s	775 ± 1.3 m/s	744.4 ± 1.3 m/s	714.5 ± 1.3 m/s	684.9 ± 1.3 m/s	–
20000 kPa	806.9 ± 1.3 m/s	786.7 ± 1.3 m/s	756.2 ± 1.3 m/s	727 ± 1.3 m/s	698.3 ± 1.3 m/s	–
23000 kPa	822.9 ± 1.3 m/s	803.2 ± 1.3 m/s	773.6 ± 1.3 m/s	745.4 ± 1.3 m/s	717 ± 1.3 m/s	–
26000 kPa	837.9 ± 1.3 m/s	818.7 ± 1.3 m/s	790.1 ± 1.3 m/s	762.7 ± 1.3 m/s	735.5 ± 1.3 m/s	–
29010 kPa	852.8 ± 1.3 m/s	833.7 ± 1.3 m/s	806.2 ± 1.3 m/s	779 ± 1.3 m/s	752.6 ± 1.3 m/s	–
32000 kPa	867.2 ± 1.3 m/s	848.7 ± 1.3 m/s	821.5 ± 1.3 m/s	794.8 ± 1.3 m/s	769.2 ± 1.3 m/s	–
35000 kPa	880.5 ± 1.3 m/s	862.6 ± 1.3 m/s	835.5 ± 1.3 m/s	809.6 ± 1.3 m/s	785.1 ± 1.3 m/s	–
40000 kPa	902.6 ± 1.3 m/s	885 ± 1.3 m/s	858.8 ± 1.3 m/s	833.5 ± 1.3 m/s	809.7 ± 1.3 m/s	–
45000 kPa	923.6 ± 1.3 m/s	906.3 ± 1.3 m/s	880.8 ± 1.3 m/s	856.4 ± 1.3 m/s	833.1 ± 1.3 m/s	–
50000 kPa	943.8 ± 1.3 m/s	926.7 ± 1.3 m/s	902 ± 1.3 m/s	877.8 ± 1.3 m/s	855.3 ± 1.3 m/s	–
55000 kPa	962.8 ± 1.3 m/s	946.6 ± 1.3 m/s	922.4 ± 1.3 m/s	898.7 ± 1.3 m/s	876.4 ± 1.3 m/s	–
60000 kPa	981.2 ± 1.3 m/s	965.6 ± 1.3 m/s	941.6 ± 1.3 m/s	919 ± 1.3 m/s	898.9 ± 1.3 m/s	–
65000 kPa	999.5 ± 1.3 m/s	983.3 ± 1.3 m/s	959.9 ± 1.3 m/s	938 ± 1.3 m/s	916.7 ± 1.3 m/s	–

Settings	speed of sound [m/s]
273.12 K	574.5 ± 1.3
280.72 K	535.2 ± 1.3
